Laboratory results: ChEMBL document CHEMBL5506062, “Discovery and Optimization of N-Arylated Tetracyclic Dicarboximides That Target Primary Glioma Stem-like Cells” (J Med Chem, 2024)

Key:
Type in all cases: ADME, organism-based
[1] = Cmax in female CD-1 mouse brain at 10 mg/kg, ip measured after 10 to 1440 mins by LC-MS/MS analysis
[2] = Tmax in female CD-1 mouse plasma at 10 mg/kg, ip measured after 10 to 1440 mins by LC-MS/MS analysis
[3] = Cmax in female CD-1 mouse plasma at 10 mg/kg, ip measured after 10 to 1440 mins by LC-MS/MS analysis
[4] = AUClast in female CD-1 mouse plasma at 10 mg/kg, ip measured after 10 to 1440 mins by LC-MS/MS analysis
[5] = Tmax in female CD-1 mouse brain at 10 mg/kg, ip measured after 10 to 1440 mins by LC-MS/MS analysis
[6] = AUClast in female CD-1 mouse brain at 10 mg/kg, ip measured after 10 to 1440 mins by LC-MS/MS analysis; conditions: in vivo
[7] = Ratio of drug concentration in brain to plasma in female CD-1 mouse at 10 mg/kg, ip measured after 10 to 1440 mins by LC-MS/MS analysis; conditions: brain and plasma, read-out: K(p,uu,brain)
[8] = AUClast in female CD-1 mouse plasma at 20 mg/kg, po measured after 0 to 1440 mins by LC-MS/MS analysis
[9] = Tmax in female CD-1 mouse plasma at 20 mg/kg, po measured after 0 to 1440 mins by LC-MS/MS analysis
[10] = Tmax in female CD-1 mouse brain at 20 mg/kg, po measured after 0 to 1440 mins by LC-MS/MS analysis
[11] = Drug concentration in female CD-1 mouse liver at 20 mg/kg, po measured at 30 mins by LC-MS/MS analysis; conditions: read-out: Ct
[12] = Cmax in female CD-1 mouse brain at 5 mg/kg, iv measured after 0 to 1440 mins by LC-MS/MS analysis
[13] = Cmax in female CD-1 mouse brain at 20 mg/kg, po measured after 0 to 1440 mins by LC-MS/MS analysis
[14] = Tmax in female CD-1 mouse brain at 5 mg/kg, iv measured after 0 to 1440 mins by LC-MS/MS analysis
[15] = AUClast in female CD-1 mouse plasma at 5 mg/kg, iv measured after 0 to 1440 mins by LC-MS/MS analysis
[16] = Oral bioavailability in female CD-1 mouse brain at 20 mg/kg measured after 0 to 1440 mins by LC-MS/MS analysis
[17] = Oral bioavailability in female CD-1 mouse plasma at 20 mg/kg measured after 0 to 1440 mins by LC-MS/MS analysis
[18] = AUClast in female CD-1 mouse brain at 5 mg/kg, iv measured after 0 to 1440 mins by LC-MS/MS analysis; conditions: in vivo
[19] = Cmax in female CD-1 mouse brain at 20 mg/kg, po measured at 90 mins by LC-MS/MS analysis
[20] = Cmax in female CD-1 mouse plasma at 20 mg/kg, po measured after 0 to 1440 mins by LC-MS/MS analysis
[21] = Drug concentration in female CD-1 mouse brain at 20 mg/kg, po measured at 30 mins by LC-MS/MS analysis; conditions: read-out: Ct
[22] = Drug concentration in female CD-1 mouse plasma at 20 mg/kg, po measured at 30 mins by LC-MS/MS analysis
[23] = Tmax in female CD-1 mouse plasma at 5 mg/kg, iv measured after 0 to 1440 mins by LC-MS/MS analysis
[24] = AUClast in female CD-1 mouse brain at 20 mg/kg, po measured after 0 to 1440 mins by LC-MS/MS analysis; conditions: in vivo
[25] = Cmax in female CD-1 mouse plasma at 5 mg/kg, iv measured after 0 to 1440 mins by LC-MS/MS analysis

| Cmax [1] [ng/g] | Tmax [2] [min] | Cmax [3] [ng/mL] | AUC(0-t) [4] [ng·h/mL] | Tmax [5] [min] | AUClast [6] [ng·min/g] | Kp uu [7] | Compound | other results |
| --- | --- | --- | --- | --- | --- | --- | --- | --- |
| 1110 | 30 | 1970 | 7340 | 30 | 220405 | 0.5 | COc1ccc(C(=O)C2CC2c2ccc(N3C(=O)[C@@H]4[C@@H]5C=C[C@@H]([C@H]6C[C@@H]56)[C@@H]4C3=O)c(F)c2)cc1Cl (stereo partly specified) | – |
| 978 | 10 | 3440 | 4780 | 30 | 83823 | 0.29 | O=C(COc1cnc(N2C(=O)[C@@H]3[C@@H]4C=C[C@@H]([C@H]5C[C@@H]45)[C@@H]3C2=O)nc1)c1ccc(Cl)c(Cl)c1 | – |
| 992 | 10 | 887 | 4350 | 30 | 294638 | 1.13 | COc1ccc(C(=O)C2CC2c2ccc(N3C(=O)[C@@H]4[C@@H]5C=C[C@@H]([C@H]6C[C@@H]56)[C@@H]4C3=O)cc2)cc1 (stereo partly specified) | – |
| 2530 | 30 | 1300 | 4830 | 90 | 720503 | 2.49 | O=C(COc1ccc(N2C(=O)[C@@H]3[C@@H]4C=C[C@@H]([C@H]5C[C@@H]45)[C@@H]3C2=O)cc1)c1cc(Cl)cc(Cl)c1 | AUC(0-t) [8]: 23100 ng·h/mL; Tmax [9]: 30 min; Tmax [10]: 90 min; concentration at 0.5 h [11]: 11500 ng/g; Cmax [12]: 3260 ng/g; Cmax [13]: 2380 ng/g; Tmax [14]: 5 min; AUC(0-t) [15]: 14800 ng·h/mL; bioavailability [16]: 58%; bioavailability [17]: 39%; AUClast [18]: 767638 ng·min/g; Cmax at […] [19]: 2380 ng/g; Cmax [20]: 3400 ng/mL; concentration at 0.5 h [21]: 1160 ng/g; concentration at 0.5 h [22]: 1430 ng/mL; Tmax [23]: 5 min; AUClast [24]: 1774789 ng·min/g; Cmax [25]: 12000 ng/mL |
